From patent publication US11382947B2, “Targeting G3BP proteins to accelerate nerve regeneration” (University of South Carolina, priority 2017, dated 2022)
“Also recorded” adds a separate entry of the source.

Columns and labels:
Type in all cases: cell-based, rat
[1] = system: DRG neurons; experiment: Axon growth of dissociated DRG neuron cultures treated with Tat-fused G3BP1 peptides
Protocol: For primary neuronal cultures, L4-5 DRG were harvested in Hybernate-A medium (BrainBits) and then dissociated as known to those of skill in the art. After centrifugation and washing in DMEM/F12 (Life Technologies), cells were resuspended in DMEM/F12, 1×N1 supplement (Sigma), 10% fetal bovine serum (Hyclone), and 10 μM cytosine arabinoside (Sigma). Dissociated DRGs were plated immediately on laminin/poly-L-lysine-coated coverslips or transfected (see below) and then plated on coated coverslips. […] Neurite outgrowth was assessed 24 h after addition of peptides. For the cortical cultures, 10 μM peptide was applied to the axonal compartment at 3 d in vitro (DIV) and axonal growth was assessed at 6 DIV. For neurite outgrowth, images from 60 h DRG cultures were analyzed for neurite outgrowth using WIS-Neuromath. Axon morphology was visualized using GFP and/or NF immunofluorescence as described.

[2] = system: DRG neurons; experiment: Axon growth of DRG neurons transfected with G3BP1 constructs or siRNA; conditions: siRNA-mediated knockdown, 100 nM siRNA vs. control siRNA; FIG. 15C
Protocol: For primary neuronal cultures, L4-5 DRG were harvested in Hybernate-A medium (BrainBits) and then dissociated as known to those of skill in the art. After centrifugation and washing in DMEM/F12 (Life Technologies), cells were resuspended in DMEM/F12, 1×N1 supplement (Sigma), 10% fetal bovine serum (Hyclone), and 10 μM cytosine arabinoside (Sigma). Dissociated DRGs were plated immediately on laminin/poly-L-lysine-coated coverslips or transfected (see below) and then plated on coated coverslips.
For DRG neuron transfection, dissociated ganglia were pelleted by centrifugation at 100×g for 5 min and resuspended in ‘nucleofector solution’ (Rat Neuron Nucleofector kit; Lonza). 5-7 μg plasmid was electroporated using an AMAXA Nucleofector apparatus (program SCN-8; Lonza). For siRNA transfection, 100 nM siRNAs (Dharmacon) were used with DharmaFECT 3 reagent and incubated for 36 h. G3BP1 siRNA sequence: 5′ […] 3′. Non-targeting siRNAs (siCon) were as control. RTddPCR was used to test the efficiency of depletion (see below). HEK293T cells were transfected using Lipofectamine® 2000 per manufacturer's instructions (Invitrogen). AAV5 preparations were titrated in DRG cultures by incubating with […] particles of AAV5 overnight.
For neurite outgrowth, images from 60 h DRG cultures were analyzed for neurite outgrowth using WIS-Neuromath. […]

[3] = system: axonal mRNA translation in DRG neurons; experiment: FRAP of axonally targeted translation reporters in DRG neurons; conditions: G3BP1-overexpressing DRGs, 10 μM peptide; FIG. 14C
Protocol: FRAP was used to test for axonal mRNA protein synthesis using diffusion-limited GFP^MYR and mCherry^MYR reporters as described with minor modifications. In each case, DRG neurons were co-transfected with […]+mCherry^MYR5'/3'gap43 or […]β1+mCherry^MYR5'/3'gap43 so that recovery of both reporters could be analyzed simultaneously. Cells were maintained at 37° C., 5% CO2 during imaging sequences. 488 nm and 514 nm laser lines on Leica SP8X confocal microscope were used to bleach GFP and mCherry signals, respectively (Argon laser at 70% power, pulsed every 0.82 sec for 80 frames). Pinhole was set to 3 Airy units to ensure full thickness bleaching and acquisition (63×/1.4 NA oil immersion objective). Prior to photobleaching, neurons were imaged every 60 sec for 2 min to acquire baseline fluorescence the region of interest (ROI; 15% laser power, 498-530 nm for GFP and 565-597 nm for mCherry emissions, respectively). The same excitation and emission parameters were used to assess recovery over 15 min post-bleach with images acquired at 30 sec intervals. To determine if fluorescence recovery in axons was from translation, cultures were treated with 150 μg/ml cycloheximide (Sigma) or 100 μM anisomycin (Sigma) for 30 min. prior to photobleaching for […]+mCherry^MYR5'/3'gap43 and […] transfected DRGs, respectively. For peptide treatments, G3BP1-mCh transfected DRG neurons were treated with 10 μM G3BP1 peptides after acquiring the baseline expression values. Photobleaching followed by analyses of recovery was performed after 30 min of peptide exposure. Fluorescent intensities in the ROIs were calculated by the Leica LASX software. For normalizing across experiments, fluorescence intensity value at t=0 min post-bleach from each image sequence was set as 0%. The percentage of fluorescence recovery at each time point after photobleaching was then calculated by normalizing relative to the pre-bleach fluorescence intensity (set at 100%).

[4] = system: axonal G3BP1-mCh aggregates; experiment: Live cell imaging of G3BP1-mCherry granules in DRG axons
Protocol: DRG neurons were transfected with G3BP1-mCherry, and 36 h later distal axons were imaged using Leica SP8X confocal microscope with environmental chamber maintained at 37° C., 5% CO2 (with 63×/1.4 NA oil immersion objective). Confocal pinhole was set to 0.43 airy units. G3BP1-mCherry signals were imaged in axon shaft every 2 sec for 100 frames (at 540 nm excitation and 23% white light laser power; 565-597 nm emission). To study the effect of the G3BP1 190-208 peptide on the G3BP1-mCherry granules, 10 μM FITC-conjugated peptide was added to the media and 15 min later imaging was continued. For G3BP1-mCherry aggregates, a 100 μm of the axon shaft was considered (≥200 μm from cell body). Thresholding was applied to acquired image sequences using ImageJ to generate binary masks. ImageJ particle analyzer was used for analysis. G3BP1 aggregates with area of ≥1 μm2 were considered as SG-like structures. For analyzing the G3BP1 aggregate velocity, ImageJ […] plug-in was used.

[5] = system: cortical neurons; experiment: Axon growth of cortical neurons in microfluidic devices, peptide applied to axonal compartment; conditions: 10 μM peptide applied to axonal compartment at 3 DIV, assessed at 6 DIV; FIG. 11C
Protocol: For cortical neuron cultures, E18 cortices were dissected in Hibernate E (BrainBits) and dissociated using the Neural Tissue Dissociation kit (Miltenyi Biotec). […] After washing and centrifugation, neurons were seeded at a density of 1×10^5 cells per poly-D-lysine-coated microfluidic device (Xona Microfluidics). NbActive-1 medium (BrainBits) supplemented with 100 U/ml of Penicillin-Streptomycin (Life Technologies), 2 mM L-Glutamine (Life Technologies), and 1×[…] supplement (R&D Systems) was used as culture medium. For peptide treatments, 10 μM Tat-fused peptides were added to dissociated DRG cultures at 2 or 12 h after plating. Neurite outgrowth was assessed 24 h after addition of peptides. For the cortical cultures, 10 μM peptide was applied to the axonal compartment at 3 d in vitro (DIV) and axonal growth was assessed at 6 DIV.

[6] = system: protein synthesis in DRG neurons; experiment: Puromycinylation assay for newly synthesized proteins in DRG neurons; conditions: peptide treatment, compared to control and 168-189 peptide, FIG. 12D
Protocol: To visualize newly synthesized proteins in cultured neurons, the current disclosure used the Click-iT® Plus OPP Protein Synthesis Assay Kit per manufacturer's instructions (Invitrogen/Life Technologies). Briefly, 3 DIV cultures were incubated with 20 μM O-propargyl-puromycin (OPP) for 30 min at 37° C. OPP-labeled proteins were detected by crosslinking with Alexa Fluor-594 picolyl azide molecule. Coverslips were then mounted with Prolong Gold Antifade (Invitrogen) and imaged with Leica DMI6000 epifluorescent microscope as above. ImageJ was used to quantify the Puromycinylation signals in distal axons and cell bodies.

[7] = 10 μM peptide added to DRG cultures immediately after plating, FIG. 16B

Substance | axon length [1, 7] | axon growth [2] | axonal translation of GFPMYR5′/3′impβ1 mRNA [3] | axonal translation of GFPMYR5′/3′nrn1 mRNA [3] | axonal translation of mChMYR5′/3′gap43 mRNA [3] | axonal G3BP1-mCh aggregates (density along 100 μm axon) ([4]; 10 μM peptide, within 15 min, FIG. 12G) | size of remaining SG-like structures in axons ([4]; after 10 μM peptide treatment, 15 min, FIG. 12H) | motility of remaining aggregates ([4]; after peptide treatment vs. control conditions) | axon growth [5] | axonal protein synthesis (Puro incorporation in DRG axons) ([6]; listed as 190-208 G3BP1 peptide) | axonal protein synthesis (Puro incorporation in DRG axons) ([6]; listed as G3BP1 190-208 peptide) | number of neurites per neuron [1, 7] | axon length ([1]; 7 d injury-conditioned (pre-injured) DRG neurons, peptide added at 12 h, assessed at 36 h, FIG. 11C) | axon length ([1]; naive DRG neurons, delayed application, peptide added at 12 h, assessed at 36 h, FIG. 11C)
Glu Glu Ser Glu Glu Glu Val Glu Glu Pro Glu Glu Arg Gln Gln Ser Pro Glu Val Val Tvr Glv Asn Lvs Lvs Asn Asn Gln Asn Asn Asn [147-166 peptide] | increased axon length |  |  |  |  |  |  |  |  |  |  |  |  | 
5′ ccacauaggagcugggaauuu 3′ [G3BP1 siRNA] |  | significantly increased axon growth |  |  |  |  |  |  |  |  |  |  |  | 
Tvr Glv Asn Lvs Lvs Asn Asn Asn Gln Asn Asn Asn Val Val Glu Pro Glu Pro Glu Pro Glu Pro Glu Pro Glu Pro Glu Pro Val Ser [190-208 peptide] | increased axon length |  | did not affect translation | significantly rescued axonal translation | did not affect translation | striking decrease | significantly smaller | greater motility | significant increase in axon growth; also recorded: significantly increased axon growth | significantly increased | increased axonal protein synthesis | increased number of neurites per neuron | significantly increased axon length; also recorded: effectively increase axon growth | significantly increased axon length; also recorded: effectively increase axon growth
